“And” between values parts separate entries of the source, which are not always exact repeats. Equal values may be shown once. Read-outs that look alike come from different tables or passages of the source.

For data set [1] the following is noted: comparison crystals from literature; cited from earlier work.
For data set [2] the following is noted: comparison crystals from literature [13], [11, 18, 12]; cited from earlier work.
The conditions of data set [3]: comparison crystals; cited from earlier work.
Data set [4] is described as follows: Solubility of OH1 and comparison crystals in methanol and other organic solvents. Format: physicochemical. As to the method: OH1 molecules are dissolved very well in acetone and acetonitrile, and relatively good in ethanol and methanol. We selected methanol as the solvent for growing the crystals because the solubility in acetone is too high and the solute yield on decreasing the temperature is the most efficient in methanol.
The solubility of OH1 in methanol as a function of temperature is shown in FIG. 25; the solid curve is according to the Van't Hoff equation with the solution enthalpy ΔH=29±2 kJ/mol and entropy change ΔS=[…].

The nature of data set [5]: Solubility in water. Format: physicochemical.
Data set [6] can be described thus: Thermal stability by thermogravimetric analysis (thermal weight-loss temperature Ti). Format: physicochemical. The settings on record: TGA under nitrogen atmosphere, scan rate 10° C./min. As to the method: The thermal stability of the OH1 chromophore was investigated using thermogravimetric analysis (TGA) and differential scanning calorimetry (DSC) under nitrogen atmosphere (scan rate: 10° C./min). The melting temperature Tm is defined here as the peak position in the DSC scan. The thermal weight-loss temperature Ti estimated as the temperature at the intercept of the leading edge of the weight loss by the base line of the TGA scans. […] The high thermal stability of OH1 crystals is an advantage for applying a melt-based crystal growth that is difficult for the ionic salts, e.g. DAST that decomposes at the melting temperature.

Consider `CN(C)c1ccc(C=Cc2cc[n+](C)cc2)cc1.Cc1ccc(S(=O)(=O)[O-])cc1` [DAST, 4′-dimethylamino-N-methyl-4-stilbazolium tosylate], for which the “thermal weight-loss temperature Ti” value in data set [1] is 250 °C and 250/250 °C. Moreover, the “solubility at 40° C. (g/100 g methanol)” value in data set [2] is given as 3.73 g/100 g methanol. Besides, the solubility in water entry in data set [3] is given as “highly soluble”.

Turning to `CN(C)c1ccc(C=CC2=CC(=C(C#N)C#N)CC(C)(C)C2)cc1` [DAT2], in data set [1], the “thermal weight-loss temperature Ti” value is 293 °C. Besides, in data set [2], the “solubility at 40° C. (g/100 g methanol)” value is on record as below 0.01 g/100 g methanol. In addition, the solubility in water result in data set [3] was “insoluble”.

For the compound `CC1(C)CC(/C=C/c2ccc(O)cc2)=CC(=C(C#N)C#N)C1` [OH1, 2-(3-(4-hydroxystyryl)-5,5-dimethylcyclohex-2-enylidene)malononitrile], in data set [4] (25° C.), the “Solubility in Acetone” value worked out at 25.9 g/100 g solvent, the “Solubility in Acetonitrile” value is recorded as 4.32 g/100 g solvent, the “Solubility in Ethanol” value stood at 2.34 g/100 g solvent and the “Solubility in Methylene chloride” value came to 1.4 g/100 g solvent. Besides, in data set [4] (40° C.), the “Solubility in Acetone” value was 41.8 g/100 g solvent, the “Solubility in Acetonitrile” value turned out to be 5.3 g/100 g solvent, the “Solubility in Ethanol” value was 2.5 g/100 g solvent and the “Solubility in Methylene chloride” value came out at 1.9 g/100 g solvent. In addition, the “Solubility in Methanol” value in data set [4] (methanol, 25° C.) is recorded as 2.15 g/100 g solvent. The “solubility at 40° C. (g/100 g methanol)” value in data set [4] (methanol, 40° C.) came out at 3.74 g/100 g methanol. Besides, the “Solubility in Methanol” value in data set [4] (methanol, 40° C. (Table 9)) is 3.4 g/100 g solvent. Further, the solubility in water entry in data set [5] is “insoluble”.

Take `CC1CC(C=Cc2ccc(O)cc2)=CC(=C(C#N)C#N)C1` (stereo not shown) [OH2, 2-(3-(4-hydroxystyryl)-5-methylcyclohex-2-enylidene)malononitrile]: the “thermal weight-loss temperature Ti” value in data set [6] is 242/326 °C.

These data come from US20110128610A1, “PHENOLIC CONFIGURATIONALLY LOCKED POLYENE BULK SINGLE CRYSTALS, CRYSTALLINE THIN FILMS AND WAVEGUIDES FOR ELECTRO-OPTICS AND THZ-WAVE APPLICATIONS” (priority 2008, published 2011).
